Assay results taken from ChEMBL document CHEMBL3739315, “Design, synthesis and biological evaluation of thiourea and nicotinamide-containing sorafenib analogs as antitumor agents” (Medchemcomm, 2015).
Calls of active or inactive are those of the source. The rule behind the calls is not given here.

Assays:
[1] = Antiproliferative activity against human HCT116 cells by MTT assay; type: functional, cell-based; conditions: HCT-116
[2] = test system: HepG2; experiment: Antiproliferative activity against human HepG2 cells by MTT assay; type: functional, cell-based
[3] = test system: MDA-MB-231; experiment: Antiproliferative activity against human MDA-MB-231 cells by MTT assay; type: functional, cell-based
[4] = Antiproliferative activity against human PC3 cells by MTT assay; type: functional, cell-based; conditions: PC-3
[5] = test system: HUVEC; experiment: Anti-angiogenic activity in human HUVEC assessed as inhibition of tube formation at 0.05 uM by matrigel assay; type: functional, cell-based
[6] = test system: HUVEC; experiment: Anti-angiogenic activity in human HUVEC assessed as inhibition of tube formation at 0.1 uM by matrigel assay; type: functional, cell-based
[7] = test system: Thoracic aorta; experiment: Ex-vivo anti-angiogenic activity in Sprague-Dawley rat thoracic aorta ring assessed as sprouting at 0.05 to 0.1 uM after 6 days; type: functional, tissue-based

SMILES	IC50 [1]	IC50 [2]	IC50 [3]	IC50 [4]	inhibition [5]	inhibition [6]	inhibition [7]
CNC(=O)c1ccc(Oc2cccc(NC(=S)Nc3ccc(C)cc3)c2)nc1	53.7 µM	65.4 µM	29.5 µM	> 100 µM			
CNC(=O)c1ccc(Oc2cccc(NC(=S)Nc3cccc(C(F)(F)F)c3)c2)nc1	36.6 µM	23.3 µM	38.1 µM	15.4 µM			
CNC(=O)c1cc(Oc2ccc(NC(=O)Nc3ccc(Cl)c(C(F)(F)F)c3)cc2)ccn1 [SORAFENIB]	8.41 µM	10.5 µM	17.8 µM	11 µM	Active	Active	
CNC(=O)c1ccc(Oc2cccc(NC(=S)Nc3ccc(F)cc3)c2)nc1	39.4 µM	42.5 µM	21.7 µM	32.7 µM			
CNC(=O)c1ccc(Oc2cccc(NC(=S)Nc3ccc(F)c(C(F)(F)F)c3)c2)nc1	19 µM	20.2 µM	13.3 µM	7.95 µM			
CNC(=O)c1ccc(Oc2cccc(NC(=S)Nc3ccc(C)c(C)c3)c2)nc1	48.2 µM	> 100 µM	38.6 µM	67.4 µM			
CNC(=O)c1ccc(Oc2cccc(NC(=S)Nc3ccc(Cl)c(C(F)(F)F)c3)c2)nc1	2.21 µM	5.35 µM	2.33 µM	1.98 µM	Active		Active
CNC(=O)c1ccc(Oc2cccc(NC(=S)Nc3ccc(OC(F)(F)F)cc3)c2)nc1	54.7 µM	> 100 µM	56 µM	> 100 µM			
CNC(=O)c1ccc(Oc2cccc(NC(=S)Nc3ccc(Cl)cc3Cl)c2)nc1	20.9 µM	21.6 µM	20.7 µM	19.3 µM			
CNC(=O)c1ccc(Oc2cccc(NC(=S)Nc3ccc(Cl)cc3)c2)nc1	42.5 µM	29.4 µM	66.5 µM	28.4 µM			
CNC(=O)c1cc(Oc2cccc(NC(=S)Nc3ccc(Cl)c(C(F)(F)F)c3)c2)ccn1	14.6 µM	24.9 µM	42.4 µM	16.4 µM			
CNC(=O)c1ccc(Oc2cccc(NC(=S)Nc3ccc(F)c(Cl)c3)c2)nc1	25.4 µM	> 100 µM	28.6 µM	18.4 µM			
CNC(=O)c1ccc(Oc2cccc(NC(=S)Nc3cc(C(F)(F)F)cc(C(F)(F)F)c3)c2)nc1	2.5 µM	4.55 µM	2.67 µM	5.86 µM	Active		Active
CNC(=O)c1ccc(Oc2cccc(NC(=S)Nc3ccc(Br)c(C(F)(F)F)c3)c2)nc1	3.12 µM	8.53 µM	3.02 µM	2.67 µM			
CNC(=O)c1ccc(Oc2cccc(NC(=S)Nc3ccc(F)c(F)c3)c2)nc1	38.2 µM	26.7 µM	69.3 µM	23.1 µM			
CNC(=O)c1ccc(Oc2cccc(NC(=S)Nc3ccc(OC)cc3)c2)nc1	49.8 µM	85.3 µM	31.5 µM	> 100 µM			
